In patent publication US4568490A, “Aminopropylaminobleomycin derivatives and process for preparation thereof” (Zaidan Hojin Biseibutsu Kagaku Kenkyu Kai, priority 1981, dated 1986):

How the values were obtained:
ICR mice = test: Pulmonary toxicity (pulmonary fibrosis) in mice, intratracheal instillation; type: in vivo; settings: 16 μg/50 μl/mouse intratracheally, sacrificed 4 weeks after instillation; for Grade: total score of pulmonary fibrosis/total number of samples: score 0-6 points
Method: Male 15 weeks old ICR mice were used. Sixteen μg/50 μl/mouse of each test sample was intratracheally instilled. The mice were sacrificed 4 weeks after instillation to examine the incidence and grade of pulmonary fibrosis. The evaluation was made by comparing the number of administered mice suffering from pulmonary fibrosis and the grade of the disease.
(§1) In Tables 4A and 4B, the grade was numerically rated as follows:
(§2) 1 point: Accumulation of exudate in pulmonary alveoli and fibrosis-like change in alveolar septum.
(§3) 2 points: Fibrosis in several areas.
(§4) 4 points: Scattered fibrosis.
(§5) 6 points: Fibrosis in more than two-thirds of the total area.

Hela S3 cells = test: Growth inhibitory activity against Hela S3 cells; type: cell-based; settings: Cu-free form; Hela S3, 3 days incubation with compound
Method: The percentage growth inhibition was calculated using the equation: […] wherein A is the ultimate number of cells on the third day from the addition of a test sample, B is the ultimate number of cells in the control (without the addition of test sample), and C is the number of cells on the day of addition of the test sample.

[1] = test system: Mycobacterium smegmatis ATCC 607; test: Antimicrobial activity, agar plate-cylinder method; type: cell-based; settings: Cu-free form; bleomycin A2 (Cu-free form) standard assumed 1,000 mcg/mg
Method: (§6) The activity was assayed against the above test microorganisms by the method of agar plate-cylinder, assuming the potency of bleomycin A2 (Cu-free form), used as standard, to be 1,000 mcg/mg.

Bacillus subtilis = test: Antimicrobial activity, agar plate-cylinder method; type: cell-based; settings: Cu-free form; bleomycin A2 (Cu-free form) standard assumed 1,000 mcg/mg
Method: (1) Antimicrobial activity against Mycobacterium smegmatis ATCC 697 and Bacillus subtilis.
as §6

ICR strain mice = test: Pulmonary toxicity (pulmonary fibrosis) in mice, intraperitoneal injection; type: in vivo; settings: 5 mg/kg i.p. once a day for 10 days; for Grade of pulmonary fibrosis, % / Incidence of pulmonary fibrosis, % / Incidence: number of mice suffering from pulmonary fibrosis / Grade: total score of pulmonary fibrosis/total number of test animal: autopsy after 5 weeks; for Incidence: number of mice suffering from pulmonary fibrosis: affected/total mice; for Grade: total score of pulmonary fibrosis/total number of test animal: score 0-6 points; for Grade of pulmonary fibrosis, Ratio / Incidence of pulmonary fibrosis, Ratio: reference of the ratio not stated
Method: (3) Pulmonary toxicity (pulmonary fibrosis) in mice.
ICR strain mice (male; 15 weeks old; 9 mice per group) were used. Each mouse was administered with a daily dose of 5 mg/kg of the test sample by intraperitoneal injection, once a day, for 10 consecutive days. After completion of the predetermined administration, the mice were kept for 5 weeks under observation, then slaughtered, and autopsied to examine the incidence and grade of pulmonary fibrosis. The evaluation was made by comparing the number of administered mice suffering from pulmonary fibrosis and the grade of the disease.
as §1, §2, §3, §4, §5

## Cc1c(N)nc(C(CC(N)=O)NCC(N)C(N)=O)nc1C(=O)NC(C(=O)NC(C)C(O)C(C)C(=O)NC(C(=O)NCCc1nc(-c2nc(C(=O)NCCCNC(C)c3ccccc3)cs2)cs1)C(C)O)C(OC1OC(CO)C(O)C(O)C1OC1OC(CO)C(O)C(OC(N)=O)C1O)c1c[nH]cn1 [PEP, 3-[(S)-1'-phenylethylamino]propylamino-bleomycin, reference compound]
ICR mice
  Grade of pulmonary fibrosis, %: 150%
  Incidence of pulmonary fibrosis, %: 75%
  Incidence: number of mice with pulmonary fibrosis/number of mice: 6/8
  Grade: total score of pulmonary fibrosis/total number of samples: 36/24

## Cc1c(N)nc(C(CC(N)=O)NCC(N)C(N)=O)nc1C(=O)NC(C(=O)NC(C)C(O)C(C)C(=O)NC(C(=O)NCCc1nc(-c2nc(C(=O)NCCCN(C)CCCNCC3CCCCC3)cs2)cs1)C(C)O)C(OC1OC(CO)C(O)C(O)C1OC1OC(CO)C(O)C(OC(N)=O)C1O)c1cnc[nH]1 (stereo not drawn) [compound 29, 3-{N--Methyl-N--[3'-(cyclohexylmethylamino)propyl]amino}propylaminoBLM]
Hela S3 cells
  50% growth inhibition concentration (ID50) of Cu--free compound against cultured Hela cell: 0.63 µg/mL
[1]
  Antimicrobial potency of Cu--free compound, against Mycobacterium smegmatis ATCC 607: 15414 mcg potency per mg
Bacillus subtilis
  Antimicrobial potency of Cu--free compound, against Bacillus subtilis: 12148 mcg potency per mg

## Cc1c(N)nc(C(CC(N)=O)NCC(N)C(N)=O)nc1C(=O)NC(C(=O)NC(C)C(O)C(C)C(=O)NC(C(=O)NCCc1nc(-c2nc(C(=O)NCCCN(C)CCCN(Cc3ccc(OCc4ccc(Cl)c(Cl)c4)c(OCc4ccc(Cl)c(Cl)c4)c3)Cc3ccc(OCc4ccc(Cl)c(Cl)c4)c(OCc4ccc(Cl)c(Cl)c4)c3)cs2)cs1)C(C)O)C(OC1OC(CO)C(O)C(O)C1OC1OC(CO)C(O)C(OC(N)=O)C1O)c1cnc[nH]1 (stereo not drawn) [compound 49, 3-{N--Methyl-N--[3'(bis(3",4"-di(m,p-dichlorobenzyloxy)benzyl)amino)propyl]amino}propylaminoBLM]
ICR strain mice
  Grade of pulmonary fibrosis, %: 0%
  Incidence of pulmonary fibrosis, %: 0%
  Incidence: number of mice suffering from pulmonary fibrosis: 0/9
  Grade: total score of pulmonary fibrosis/total number of test animal: 0/27
  Grade of pulmonary fibrosis, Ratio: 0.00
  Incidence of pulmonary fibrosis, Ratio: 0.00
Hela S3 cells
  50% growth inhibition concentration (ID50) of Cu--free compound against cultured Hela cell: 0.063 µg/mL
[1]
  Antimicrobial potency of Cu--free compound, against Mycobacterium smegmatis ATCC 607: 23 mcg potency per mg
Bacillus subtilis
  Antimicrobial potency of Cu--free compound, against Bacillus subtilis: 8 mcg potency per mg

## Cc1c(N)nc(C(CC(N)=O)NCC(N)C(N)=O)nc1C(=O)NC(C(=O)NC(C)C(O)C(C)C(=O)NC(C(=O)NCCc1nc(-c2nc(C(=O)NCCCN(C)CCCNCC3CCCCCCCCCCCC3)cs2)cs1)C(C)O)C(OC1OC(CO)C(O)C(O)C1OC1OC(CO)C(O)C(OC(N)=O)C1O)c1cnc[nH]1 (stereo not drawn) [compound 47, 3-{N--Methyl-N--[3'-(cyclotridecanylmethylamino)propyl]amino}propylaminoBLM]
ICR strain mice
  Grade of pulmonary fibrosis, %: 0%
  Incidence of pulmonary fibrosis, %: 0%
  Incidence: number of mice suffering from pulmonary fibrosis: 0/9
  Grade: total score of pulmonary fibrosis/total number of test animal: 0/27
  Grade of pulmonary fibrosis, Ratio: 0.00
  Incidence of pulmonary fibrosis, Ratio: 0.00
Hela S3 cells
  50% growth inhibition concentration (ID50) of Cu--free compound against cultured Hela cell: 0.18 µg/mL
[1]
  Antimicrobial potency of Cu--free compound, against Mycobacterium smegmatis ATCC 607: 3915 mcg potency per mg
Bacillus subtilis
  Antimicrobial potency of Cu--free compound, against Bacillus subtilis: 1760 mcg potency per mg

## Cc1c(N)nc(C(CC(N)=O)NCC(N)C(N)=O)nc1C(=O)NC(C(=O)NC(C)C(O)C(C)C(=O)NC(C(=O)NCCc1nc(-c2nc(C(=O)NCCCN(C)CCCNCCC3CCCCC3)cs2)cs1)C(C)O)C(OC1OC(CO)C(O)C(O)C1OC1OC(CO)C(O)C(OC(N)=O)C1O)c1cnc[nH]1 (stereo not drawn) [compound 30, 3-{N--Methyl-N--[3'-(cyclohexylethylamino)propyl]amino}propylaminoBLM]
Hela S3 cells
  50% growth inhibition concentration (ID50) of Cu--free compound against cultured Hela cell: 0.56 µg/mL
[1]
  Antimicrobial potency of Cu--free compound, against Mycobacterium smegmatis ATCC 607: 35030 mcg potency per mg
Bacillus subtilis
  Antimicrobial potency of Cu--free compound, against Bacillus subtilis: 14440 mcg potency per mg

## Cc1c(N)nc(C(CC(N)=O)NCC(N)C(N)=O)nc1C(=O)NC(C(=O)NC(C)C(O)C(C)C(=O)NC(C(=O)NCCc1nc(-c2nc(C(=O)NCCCN(C)CCCN(Cc3ccc(OCc4ccc(OCc5ccccc5)cc4)cc3)Cc3ccc(OCc4ccc(OCc5ccccc5)cc4)cc3)cs2)cs1)C(C)O)C(OC1OC(CO)C(O)C(O)C1OC1OC(CO)C(O)C(OC(N)=O)C1O)c1cnc[nH]1 (stereo not drawn) [compound 51]
ICR strain mice
  Grade of pulmonary fibrosis, %: 0%
  Incidence of pulmonary fibrosis, %: 0%
  Incidence: number of mice suffering from pulmonary fibrosis: 0/9
  Grade: total score of pulmonary fibrosis/total number of test animal: 0/27
  Grade of pulmonary fibrosis, Ratio: 0.00
  Incidence of pulmonary fibrosis, Ratio: 0.00
Hela S3 cells
  50% growth inhibition concentration (ID50) of Cu--free compound against cultured Hela cell: 0.12 µg/mL
[1]
  Antimicrobial potency of Cu--free compound, against Mycobacterium smegmatis ATCC 607: 163 mcg potency per mg
Bacillus subtilis
  Antimicrobial potency of Cu--free compound, against Bacillus subtilis: 46 mcg potency per mg

## Cc1c(N)nc(C(CC(N)=O)NCC(N)C(N)=O)nc1C(=O)NC(C(=O)NC(C)C(O)C(C)C(=O)NC(C(=O)NCCc1nc(-c2nc(C(=O)NCCCN(C)CCCNCc3ccc([N+](=O)[O-])cc3)cs2)cs1)C(C)O)C(OC1OC(CO)C(O)C(O)C1OC1OC(CO)C(O)C(OC(N)=O)C1O)c1cnc[nH]1 (stereo not drawn) [MNBZ, 3-(N-methyl-N-3-p-nitro-benzylamino-propyl)aminopropylamino-bleomycin, reference compound]
ICR mice
  Grade of pulmonary fibrosis, %: 104%
  Incidence of pulmonary fibrosis, %: 89%
  Incidence: number of mice with pulmonary fibrosis/number of mice: 8/9
  Grade: total score of pulmonary fibrosis/total number of samples: 28/27

## Cc1c(N)nc(C(CC(N)=O)NCC(N)C(N)=O)nc1C(=O)NC(C(=O)NC(C)C(O)C(C)C(=O)NC(C(=O)NCCc1nc(-c2nc(C(=O)NCCCNCCCNC(C)c3ccccc3)cs2)cs1)C(C)O)C(OC1OC(CO)C(O)C(O)C1OC1OC(CO)C(O)C(OC(N)=O)C1O)c1cnc[nH]1 (stereo not drawn) [PEPP, 3-[3-(N-1-phenylethyl)aminopropyl]aminopropylamino-bleomycin, reference compound]
ICR mice
  Grade of pulmonary fibrosis, %: 56%
  Incidence of pulmonary fibrosis, %: 89%
  Incidence: number of mice with pulmonary fibrosis/number of mice: 8/9
  Grade: total score of pulmonary fibrosis/total number of samples: 15/27

## Cc1c(N)nc(C(CC(N)=O)NCC(N)C(N)=O)nc1C(=O)NC(C(=O)NC(C)C(O)C(C)C(=O)NC(C(=O)NCCc1nc(-c2nc(C(=O)NCCCN(C)CCCNCC3CCCCCC3)cs2)cs1)C(C)O)C(OC1OC(CO)C(O)C(O)C1OC1OC(CO)C(O)C(OC(N)=O)C1O)c1cnc[nH]1 (stereo not drawn) [compound 31, 3-{N--Methyl-N--[3'-(cycloheptylmethylamino)propyl]amino}propylaminoBLM]
Hela S3 cells
  50% growth inhibition concentration (ID50) of Cu--free compound against cultured Hela cell: 0.48 µg/mL
[1]
  Antimicrobial potency of Cu--free compound, against Mycobacterium smegmatis ATCC 607: 25924 mcg potency per mg
Bacillus subtilis
  Antimicrobial potency of Cu--free compound, against Bacillus subtilis: 20143 mcg potency per mg

## Cc1c(N)nc(C(CC(N)=O)NCC(N)C(N)=O)nc1C(=O)NC(C(=O)NC(C)C(O)C(C)C(=O)NC(C(=O)NCCc1nc(-c2nc(C(=O)NCCCN(C)CCCNCC3CCCC3)cs2)cs1)C(C)O)C(OC1OC(CO)C(O)C(O)C1OC1OC(CO)C(O)C(OC(N)=O)C1O)c1cnc[nH]1 (stereo not drawn) [compound 28, 3-{N--Methyl-N--[3'-(cyclopentylmethylamino)propyl]amino}propylaminoBLM]
Hela S3 cells
  50% growth inhibition concentration (ID50) of Cu--free compound against cultured Hela cell: 1.00 µg/mL
[1]
  Antimicrobial potency of Cu--free compound, against Mycobacterium smegmatis ATCC 607: 13595 mcg potency per mg
Bacillus subtilis
  Antimicrobial potency of Cu--free compound, against Bacillus subtilis: 16180 mcg potency per mg
